Patent publication US20160139154A1, “METHODS FOR DETERMINING TOTAL BODY SKELETAL MUSCLE MASS” (THE REGENTS OF THE UNIVERSITY OF CALIFORNIA, priority 2013, published 2016)

How the values were obtained:
[1] = Urinary excretion and renal clearance of the D3-creatine tracer dose; type: in vivo, human
Method: (§1) In the older subjects, sampling was extended to 72 hr (24, 36, 48, and 72 hr). Urine was collected continuously beginning at baseline, day −1, through day 5 of the study in timed intervals. On Day −1, subjects entered the clinic prior to noon, and timed urine collections began at 12:00 PM with 12:00 PM being time 0 (0-4, 4-8, 8-12, 12-20 h), and completed at 8:00 AM the next day, Day 1.
(§2) Total body creatine pool size and muscle mass were calculated from D3-creatinine enrichment in urine. Total body muscle mass was measured by MRI (serial cross sections), and total lean body mass (LBM) and appendicular lean mass (ALM) were measured by DXA during the subjects' stay on the inpatient unit.
The data were analyzed in SAS v9.2 (SAS Institute, Cary, N.C.) and graphs were produced in either SAS or TSCG. […] There were no adjustments for multiplicity.

[2] = Pharmacokinetics of D3-creatine in plasma after a single oral tracer dose; type: in vivo, human; conditions: healthy subjects
Method: Subjects were housed on the in-patient unit for the full 5 day study. Subjects were admitted on Day-1, for baseline evaluation and acclimation.
as §1, §2

[3] = in vivo, po
Method: Enrichment of D3-creatinine in urine to total creatinine in urine was determined for each urine collection interval. Achievement of steady-state enrichment was determined by a combination of visual inspection and linear regression. […] Linear regression of the enrichment ratio on time (midpoint of the urine collection interval) was performed for each subject separately. […] The earliest time point included in the final regression was defined as the time to achievement of steady-state.

[2H]C([2H])([2H])N(CC(=O)O)C(=N)N [D3-creatine]
% of D3-creatine recovered in urine over 120 h ([1]; range across subjects, single oral dose 30-100 mg): 0.1 to 34% | cleared from plasma ([2]; single oral tracer dose 30-100 mg, within 24 h): ~80% | cleared from plasma by 72 h ([2]; single oral tracer dose, by 72 h): essentially cleared

D3-creatinine
renal clearance ([1]; human, in vivo): 0.26 to 56 mL/min | renal clearance as % of the dose ([1]; human, in vivo): 0.1% to 34 | time to achievement of steady-state enrichment in urine [3]: 30.7 h
